# Assay results: paper PMC5218480 (PLoS ONE, 2017)
# Tested on: MV-4-11 cells
# Test: Gene expression microarray analysis (Affymetrix PrimeView) and GSEA
# Type: cell-based, human
# Set-up: RFU PODN (11730768_x_at) / Fold change /veh PODN (11730768_x_at) / RFU LINC00158 (11744669_a_at) / Fold change /veh LINC00158 (11744669_a_at) / RFU DUSP10 (11751237_a_at) / Fold change /veh DUSP10 (11751237_a_at) / RFU ID3 (11757404_x_at) / Fold change /veh ID3 (11757404_x_at) / RFU PLEKHG5 (11737974_s_at) / Fold change /veh PLEKHG5 (11737974_s_at) / RFU LRRC4B (11730491_at) / Fold change /veh LRRC4B (11730491_at) / RFU GIMAP4 (11747438_a_at) / Fold change /veh GIMAP4 (11747438_a_at) / RFU KRT8 (11758183_x_at) / Fold change /veh KRT8 (11758183_x_at) / RFU CNN1 (11734310_a_at) / Fold change /veh CNN1 (11734310_a_at) / RFU VPS37D (11726825_at) / Fold change /veh VPS37D (11726825_at) / RFU C10orf10 (11716522_x_at) / Fold change /veh C10orf10 (11716522_x_at) / RFU KIR2DL2 /// KIR2DL4 /// KIR2DL5A /// KIR2DL5B /// KIR2DS1 /// KIR2DS2 /// KIR2DS3 /// KIR2DS4 /// KIR3DL3 /// KIR3DL3 /// KIR3DS1 (11738374_at) / Fold change /veh KIR2DL2 /// KIR2DL4 /// KIR2DL5A /// KIR2DL5B /// KIR2DS1 /// KIR2DS2 /// KIR2DS3 /// KIR2DS4 /// KIR3DL3 /// KIR3DL3 /// KIR3DS1 (11738374_at) / RFU C1QL1 (11718748_at) / Fold change /veh C1QL1 (11718748_at) / RFU TMPRSS4 (11747572_a_at) / Fold change /veh TMPRSS4 (11747572_a_at) / RFU HAMP (11756126_x_at) / Fold change /veh HAMP (11756126_x_at) / RFU RNFT2 (11725882_a_at) / Fold change /veh RNFT2 (11725882_a_at) / RFU NR4A2 (11747474_a_at) / Fold change /veh NR4A2 (11747474_a_at) / RFU ABCC12 (11746883_a_at) / Fold change /veh ABCC12 (11746883_a_at) / RFU TMEM136 (11760407_x_at) / Fold change /veh TMEM136 (11760407_x_at) / RFU CLDN22 /// WWC2 (11732394_at) / Fold change /veh CLDN22 /// WWC2 (11732394_at) / RFU HLA-DPB1 (11760878_x_at) / Fold change /veh HLA-DPB1 (11760878_x_at) / RFU SPINT1 (11716480_a_at) / Fold change /veh SPINT1 (11716480_a_at) / RFU GAP43 (11754022_s_at) / Fold change /veh GAP43 (11754022_s_at) / RFU A4GNT (11735810_at) / Fold change /veh A4GNT (11735810_at) / RFU PRB3 (11715151_x_at) / Fold change /veh PRB3 (11715151_x_at) / RFU TUBB4B (11761932_at) / Fold change /veh TUBB4B (11761932_at) / RFU CAPN14 (11732068_a_at) / Fold change /veh CAPN14 (11732068_a_at) / RFU TMCC2 (11721928_a_at) / Fold change /veh TMCC2 (11721928_a_at) / RFU IRGQ (11745062_a_at) / Fold change /veh IRGQ (11745062_a_at) / RFU FAM174B (11720279_a_at) / Fold change /veh FAM174B (11720279_a_at) / RFU TMPRSS4 (11748680_a_at) / Fold change /veh TMPRSS4 (11748680_a_at) / RFU FAM212B (11763350_a_at) / Fold change /veh FAM212B (11763350_a_at) / RFU PLEKHG5 (11743358_a_at) / Fold change /veh PLEKHG5 (11743358_a_at) / RFU ZSCAN30 (11745921_a_at) / Fold change /veh ZSCAN30 (11745921_a_at) / RFU CMKLR1 (11741424_a_at) / Fold change /veh CMKLR1 (11741424_a_at) / RFU LOC101060620 /// MAPK8IP1 (11723275_at) / Fold change /veh LOC101060620 /// MAPK8IP1 (11723275_at) / RFU SPTSSB (11747773_x_at) / Fold change /veh SPTSSB (11747773_x_at) / RFU PRSS12 (11739890_at) / Fold change /veh PRSS12 (11739890_at) / RFU BIN1 (11741810_x_at) / Fold change /veh BIN1 (11741810_x_at) / RFU WNT11 (11732464_a_at) / Fold change /veh WNT11 (11732464_a_at) / RFU C10orf10 (11716521_a_at) / Fold change /veh C10orf10 (11716521_a_at) / RFU C5orf56 (11738089_at) / Fold change /veh C5orf56 (11738089_at) / RFU CYB561 (11721691_x_at) / Fold change /veh CYB561 (11721691_x_at) / RFU ANKRD19P (11752326_a_at) / Fold change /veh ANKRD19P (11752326_a_at) / RFU OR2T12 /// OR2T33 /// OR2T8 (11738714_s_at) / Fold change /veh OR2T12 /// OR2T33 /// OR2T8 (11738714_s_at) / RFU VCAN (11748164_a_at) / Fold change /veh VCAN (11748164_a_at) / RFU JSRP1 (11732532_at) / Fold change /veh JSRP1 (11732532_at) / RFU KRTAP10-11 (11738290_x_at) / Fold change /veh KRTAP10-11 (11738290_x_at) / RFU MYO3A (11730013_a_at) / Fold change /veh MYO3A (11730013_a_at) / RFU EBF3 (11725865_a_at) / Fold change /veh EBF3 (11725865_a_at) / RFU CAMK2N1 (11719241_x_at) / Fold change /veh CAMK2N1 (11719241_x_at) / RFU C5orf56 (11738088_a_at) / Fold change /veh C5orf56 (11738088_a_at) / RFU OLFML3 (11715873_a_at) / Fold change /veh OLFML3 (11715873_a_at) / RFU LOC100653217 /// NTM (11731650_a_at) / Fold change /veh LOC100653217 /// NTM (11731650_a_at) / RFU MAPK11 (11762145_a_at) / Fold change /veh MAPK11 (11762145_a_at) / RFU FIZ1 (11724087_x_at) / Fold change /veh FIZ1 (11724087_x_at) / RFU OASL (11726364_x_at) / Fold change /veh OASL (11726364_x_at) / RFU SOX15 (11748057_x_at) / Fold change /veh SOX15 (11748057_x_at) / RFU CD79A (11719716_a_at) / Fold change /veh CD79A (11719716_a_at) / RFU HIST1H1D (11736915_at) / Fold change /veh HIST1H1D (11736915_at) / RFU CASKIN2 (11723855_a_at) / Fold change /veh CASKIN2 (11723855_a_at) / RFU LOC730098 (11760151_x_at) / Fold change /veh LOC730098 (11760151_x_at) / RFU OR4N2 (11742367_at) / Fold change /veh OR4N2 (11742367_at) / RFU PRRT2 (11749266_a_at) / Fold change /veh PRRT2 (11749266_a_at) / RFU SNX32 (11753110_a_at) / Fold change /veh SNX32 (11753110_a_at) / RFU CDHR5 (11726645_a_at) / Fold change /veh CDHR5 (11726645_a_at) / RFU RCAN1 (11760418_a_at) / Fold change /veh RCAN1 (11760418_a_at) / RFU FAM167A (11723789_a_at) / Fold change /veh FAM167A (11723789_a_at) / RFU FAM26E (11764081_at) / Fold change /veh FAM26E (11764081_at) / RFU ISYNA1 (11749810_s_at) / Fold change /veh ISYNA1 (11749810_s_at) / RFU ACY1 (11761880_at) / Fold change /veh ACY1 (11761880_at) / RFU 11764098_at / Fold change /veh 11764098_at / RFU SAMD14 (11745864_x_at) / Fold change /veh SAMD14 (11745864_x_at) / RFU NPB (11741838_a_at) / Fold change /veh NPB (11741838_a_at) / RFU TMPRSS6 (11731388_a_at) / Fold change /veh TMPRSS6 (11731388_a_at) / RFU KRTAP10-2 (11738614_at) / Fold change /veh KRTAP10-2 (11738614_at) / RFU ARHGAP8 /// PRR5-ARHGAP8 (11727945_x_at) / Fold change /veh ARHGAP8 /// PRR5-ARHGAP8 (11727945_x_at) / RFU KRTAP5-7 /// NADSYN1 (11734609_at) / Fold change /veh KRTAP5-7 /// NADSYN1 (11734609_at) / RFU RASL12 (11751679_a_at) / Fold change /veh RASL12 (11751679_a_at) / RFU CDKN2B (11736163_a_at) / Fold change /veh CDKN2B (11736163_a_at) / RFU PRF1 (11729649_at) / Fold change /veh PRF1 (11729649_at) / RFU, ZNF638 /// ZNF638-IT1 / Fold change vs veh, ZNF638 /// ZNF638-IT1 / RFU, PANK3 / Fold change vs veh, PANK3 / RFU, SH3YL1 / Fold change vs veh, SH3YL1 / RFU, ZEB2 / Fold change vs veh, ZEB2 / RFU, NRIP1 / Fold change vs veh, NRIP1 / RFU, PTTG1IP / Fold change vs veh, PTTG1IP / RFU, CAPN2 / Fold change vs veh, CAPN2 / RFU, MED14 / Fold change vs veh, MED14 / RFU, SNORA58 / Fold change vs veh, SNORA58 / RFU, C1orf63 / Fold change vs veh, C1orf63 / RFU, LRRFIP1 / Fold change vs veh, LRRFIP1 / RFU, NDUFAF7 / Fold change vs veh, NDUFAF7 / RFU, SLC12A2 / Fold change vs veh, SLC12A2 / RFU, IBTK / Fold change vs veh, IBTK / RFU, ESF1 / Fold change vs veh, ESF1 / Fold change vs veh, TMEM50B / RFU, TAOK1 / Fold change vs veh, TAOK1 / RFU, ACBD3 / Fold change vs veh, ACBD3 / RFU, TMA16 / Fold change vs veh, TMA16 / RFU, RWDD3 / Fold change vs veh, RWDD3 / RFU, BCAT1 / Fold change vs veh, BCAT1 / RFU, EDEM3 / Fold change vs veh, EDEM3 / RFU, TMEM33 / Fold change vs veh, TMEM33 / RFU, WDR75 / Fold change vs veh, WDR75 / RFU, AHCTF1 / Fold change vs veh, AHCTF1 / RFU, TFRC / Fold change vs veh, TFRC / RFU, ZDHHC17 / Fold change vs veh, ZDHHC17 / RFU, NOM1 / Fold change vs veh, NOM1 / RFU, ARL8B / Fold change vs veh, ARL8B / RFU, ZBTB11 / Fold change vs veh, ZBTB11 / RFU, TAMM41 / Fold change vs veh, TAMM41 / RFU, KIAA1704 /// LOC100996395 / Fold change vs veh, KIAA1704 /// LOC100996395 / RFU, ING1 / Fold change vs veh, ING1 / RFU, TRMT61B / Fold change vs veh, TRMT61B / RFU, FUBP3 / Fold change vs veh, FUBP3 / RFU, TP53 / Fold change vs veh, TP53 / RFU, TNKS2 / Fold change vs veh, TNKS2 / RFU, ZFP14 / Fold change vs veh, ZFP14 / RFU, ACTR2 / Fold change vs veh, ACTR2 / RFU, PPP3R1 / Fold change vs veh, PPP3R1 / RFU, PIK3R1 / Fold change vs veh, PIK3R1 / RFU, HNRNPA1 / Fold change vs veh, HNRNPA1 / RFU, RNF170 / Fold change vs veh, RNF170 / RFU, ZNF28 / Fold change vs veh, ZNF28 / RFU, RNGTT / Fold change vs veh, RNGTT / RFU, OGT / Fold change vs veh, OGT / RFU, BRD1 / Fold change vs veh, BRD1 / RFU, MARS / Fold change vs veh, MARS / RFU, ZNF655 / Fold change vs veh, ZNF655 / RFU, FAHD1 / Fold change vs veh, FAHD1 / RFU, BDP1 / Fold change vs veh, BDP1 / RFU, LRRCC1 / Fold change vs veh, LRRCC1 / RFU, ARID1A / Fold change vs veh, ARID1A / RFU, ZNF146 / Fold change vs veh, ZNF146 / RFU, ZNF330 / Fold change vs veh, ZNF330 / RFU, GPN3 / Fold change vs veh, GPN3 / RFU, C9orf123 / Fold change vs veh, C9orf123 / RFU, N4BP2L2 / Fold change vs veh, N4BP2L2 / RFU, ARFIP1 / Fold change vs veh, ARFIP1 / RFU, FAM179B / Fold change vs veh, FAM179B / RFU, BCL10 / Fold change vs veh, BCL10 / RFU, UHRF1BP1L / Fold change vs veh, UHRF1BP1L / RFU, BET1 / Fold change vs veh, BET1 / RFU, CNOT2 / Fold change vs veh, CNOT2 / RFU, ZNF268 / Fold change vs veh, ZNF268 / Fold change vs veh, ZNF507 / RFU, DGCR2 / Fold change vs veh, DGCR2 / RFU, WDSUB1 / Fold change vs veh, WDSUB1 / Fold change vs veh, HSP90B1 /// MIR3652 / RFU, ADSS / Fold change vs veh, ADSS / RFU, GK / Fold change vs veh, GK / RFU, ZNF148 / Fold change vs veh, ZNF148 / RFU, TAF9 / Fold change vs veh, TAF9 / RFU, SLC1A5 / Fold change vs veh, SLC1A5 / RFU, SLMO2 / Fold change vs veh, SLMO2 / RFU, ABCC4 / Fold change vs veh, ABCC4 / RFU, LOC101060439 /// RAP1B / Fold change vs veh, LOC101060439 /// RAP1B / RFU, RFX7 / Fold change vs veh, RFX7 / RFU, GTPBP10 / Fold change vs veh, GTPBP10 / RFU, CNEP1R1 / Fold change vs veh, CNEP1R1 / RFU, BIVM-ERCC5 /// ERCC5 / Fold change vs veh, BIVM-ERCC5 /// ERCC5 / RFU, ILF3 / Fold change vs veh, ILF3 / RFU 11762660_at / Fold change /veh 11762660_at / RFU VCAN (11757783_s_at) / Fold change /veh VCAN (11757783_s_at) / RFU DDX43 (11728927_at) / Fold change /veh DDX43 (11728927_at) / RFU KRT8 (11758188_x_at) / Fold change /veh KRT8 (11758188_x_at) / RFU NKD1 (11759106_at) / Fold change /veh NKD1 (11759106_at) / RFU SRD5A1 (11742802_a_at) / Fold change /veh SRD5A1 (11742802_a_at) / RFU TPSAB1 /// TPSB2 (11721975_s_at) / Fold change /veh TPSAB1 /// TPSB2 (11721975_s_at) / RFU GSTM3 (11746129_a_at) / Fold change /veh GSTM3 (11746129_a_at) / RFU IL23R (11737362_x_at) / Fold change /veh IL23R (11737362_x_at) / RFU TMEM51 (11727254_a_at) / Fold change /veh TMEM51 (11727254_a_at) / RFU PIWIL2 (11732686_x_at) / Fold change /veh PIWIL2 (11732686_x_at) / RFU ORM1 (11744905_x_at) / Fold change /veh ORM1 (11744905_x_at) / RFU CCDC152 (11743942_at) / Fold change /veh CCDC152 (11743942_at) / RFU ECM1 (11717891_a_at) / Fold change /veh ECM1 (11717891_a_at) / RFU IL23R (11748794_a_at) / Fold change /veh IL23R (11748794_a_at) / RFU TNFAIP8L3 (11732012_x_at) / Fold change /veh TNFAIP8L3 (11732012_x_at) / RFU MBOAT4 (11741988_at) / Fold change /veh MBOAT4 (11741988_at) / RFU 11764193_at / Fold change /veh 11764193_at / RFU TMEM53 (11763286_at) / Fold change /veh TMEM53 (11763286_at) / RFU MAGEB2 (11727129_at) / Fold change /veh MAGEB2 (11727129_at) / RFU TMEM200A (11744735_a_at) / Fold change /veh TMEM200A (11744735_a_at) / RFU CCDC152 (11751479_a_at) / Fold change /veh CCDC152 (11751479_a_at) / RFU FAM211A (11726209_a_at) / Fold change /veh FAM211A (11726209_a_at) / RFU RGS16 (11746705_a_at) / Fold change /veh RGS16 (11746705_a_at) / RFU VCAN (11755009_s_at) / Fold change /veh VCAN (11755009_s_at) / RFU RHOB (11743442_s_at) / Fold change /veh RHOB (11743442_s_at) / RFU RGS16 (11720943_a_at) / Fold change /veh RGS16 (11720943_a_at) / RFU RGS16 (11720944_at) / Fold change /veh RGS16 (11720944_at) / RFU, VPS4B / Fold change vs veh, VPS4B / RFU, CREB1 / Fold change vs veh, CREB1 / RFU, DNAJC13 / Fold change vs veh, DNAJC13 / RFU, GNAQ / Fold change vs veh, GNAQ / RFU, CDK5R1 / Fold change vs veh, CDK5R1 / RFU, ZRANB3 / Fold change vs veh, ZRANB3 / RFU, CUL4A / Fold change vs veh, CUL4A / RFU, CCNY / Fold change vs veh, CCNY / RFU, UFL1 / Fold change vs veh, UFL1 / RFU, COG3 / Fold change vs veh, COG3 / RFU, DIAPH2 / Fold change vs veh, DIAPH2 / RFU, SKA2 / Fold change vs veh, SKA2 / RFU, AFF3 / Fold change vs veh, AFF3 / RFU, LMF1 / Fold change vs veh, LMF1 / RFU, IPO11 / Fold change vs veh, IPO11 / RFU, DFFB / Fold change vs veh, DFFB / RFU, FOXP1 / Fold change vs veh, FOXP1 / RFU, CARD8 / Fold change vs veh, CARD8 / RFU, STRN3 / Fold change vs veh, STRN3 / RFU, ADK / Fold change vs veh, ADK / RFU, RASSF2 / Fold change vs veh, RASSF2 / RFU, WIPF1 / Fold change vs veh, WIPF1 / RFU, LARP1B / Fold change vs veh, LARP1B / RFU, RASA1 / Fold change vs veh, RASA1 / RFU, RB1 / Fold change vs veh, RB1 / RFU, PPFIA1 / Fold change vs veh, PPFIA1 / RFU, MAT2A / Fold change vs veh, MAT2A / RFU, CCT5 / Fold change vs veh, CCT5 / RFU, WDR92 / Fold change vs veh, WDR92 / RFU, CUX1 / Fold change vs veh, CUX1 / RFU, TTC7A / Fold change vs veh, TTC7A / RFU, TMEM135 / Fold change vs veh, TMEM135 / RFU, DEPTOR / Fold change vs veh, DEPTOR / RFU, CPM / Fold change vs veh, CPM / RFU, DNAJB6 / Fold change vs veh, DNAJB6 / RFU, CACNA2D3 / Fold change vs veh, CACNA2D3 / RFU, DTX4 / Fold change vs veh, DTX4 / RFU, TFCP2 / Fold change vs veh, TFCP2 / RFU, GMCL1 /// GMCL1P1 / Fold change vs veh, GMCL1 /// GMCL1P1 / RFU, AEBP2 / Fold change vs veh, AEBP2 / RFU, SNHG1 /// SNORD22 /// SNORD25 /// SNORD26 /// SNORD27 /// SNORD28 /// SNORD29 /// SNORD31 / Fold change vs veh, SNHG1 /// SNORD22 /// SNORD25 /// SNORD26 /// SNORD27 /// SNORD28 /// SNORD29 /// SNORD31 / Fold change (Aza/veh), C12orf56 (ProbeSet 11735607_a_at) / Fold change (ACY-1035/veh), C12orf56 (ProbeSet 11735607_a_at) / Fold change (Aza/veh), FGFR1OP (ProbeSet 11751329_s_at) / Fold change (ACY-1035/veh), FGFR1OP (ProbeSet 11751329_s_at) / Fold change (Aza/veh), VPS36 (ProbeSet 11739960_a_at) / Fold change (ACY-1035/veh), VPS36 (ProbeSet 11739960_a_at) / RFU SYPL1 (11715823_x_at) / Fold change /veh SYPL1 (11715823_x_at) / RFU IGFBP7 (11715501_s_at) / Fold change /veh IGFBP7 (11715501_s_at) / RFU REEP3 (11722064_at) / Fold change /veh REEP3 (11722064_at) / RFU IGLL1 (11728026_x_at) / Fold change /veh IGLL1 (11728026_x_at): dose or concentration left out as unconfirmed
# Conditions: ProbeSet 11726703_a_at; LIST B
compound,measurement,value
Nc1ccc(-c2cccs2)cc1NC(=O)c1ccc2c(c1)cc(C1CC1)n2CCN1CCOCC1 [ACY-1035],"RFU, BCL10",67.93 RFU
